{
  "source": "ChEMBL document CHEMBL1134735",
  "about": "“Synthesis and photodynamic action of diphenyl-2,3-dihydroxychlorin: a potential tumor photosensitizer” (2001)",
  "assay": "The dark toxicity against 543 human galactophore carcinoma cells",
  "format": "functional",
  "data": [
    {"smiles": "OC1c2cc3ccc([nH]3)c(-c3ccccc3)c3ccc(cc4nc(c(-c5ccccc5)c(n2)C1O)C=C4)[nH]3", "note": "(stereo unspecified)", "values": [
      {"measurement": "IC90", "value": "> 32", "unit": "µg/mL"}
    ]}
  ]
}
